Data on seven compounds can be found in US4786755A, “Diphenic acid monoamides” (Warner-Lambert Company, priority 1986, dated 1988).

The assay has as its target T1, human leukocyte 5-lipoxygenase (Homo sapiens, UniProt P09917).
T1 construct: endogenous in cells; host or cells: leukocytes from fresh blood of normal adult men
T1 sequence (P09917 1-674): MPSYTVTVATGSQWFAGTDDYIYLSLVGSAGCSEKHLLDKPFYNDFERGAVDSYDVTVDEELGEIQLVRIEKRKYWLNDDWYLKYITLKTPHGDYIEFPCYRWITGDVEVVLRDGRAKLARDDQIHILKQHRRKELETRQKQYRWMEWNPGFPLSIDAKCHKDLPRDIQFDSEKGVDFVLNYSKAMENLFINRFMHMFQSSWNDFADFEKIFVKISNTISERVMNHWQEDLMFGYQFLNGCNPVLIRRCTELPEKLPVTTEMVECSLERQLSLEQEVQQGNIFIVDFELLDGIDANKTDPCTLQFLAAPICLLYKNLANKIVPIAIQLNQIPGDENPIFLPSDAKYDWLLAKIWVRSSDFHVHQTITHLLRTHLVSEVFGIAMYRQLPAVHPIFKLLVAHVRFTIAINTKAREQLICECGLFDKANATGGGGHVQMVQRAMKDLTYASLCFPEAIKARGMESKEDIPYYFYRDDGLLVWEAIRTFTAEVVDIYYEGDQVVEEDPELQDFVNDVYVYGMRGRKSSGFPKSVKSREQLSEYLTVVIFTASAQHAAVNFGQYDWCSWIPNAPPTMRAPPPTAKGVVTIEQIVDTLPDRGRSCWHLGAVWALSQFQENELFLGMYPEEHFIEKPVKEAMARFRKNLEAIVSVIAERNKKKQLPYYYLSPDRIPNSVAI
Put plainly: 5-Lipoxygenase Inhibitor in Human Leukocytes (5LOA1). The format is cell-based. The conditions noted are these: 100 μM exogenous arachidonic acid; read-out: IC50 5LOA (100)*. From the text:
To Evaluate the Effect of Each Compounds as a 5-Lipoxygenase Inhibitor in Comparison to Standard Reference Agents in Human Leukocytes (5LOA1)
The purpose of this assay is to evaluate the activity of each compound as an inhibitor of human leukocyte 5-lipoxygenase.
Arachidonic acid and calcium ionophore A23187 are obtained from Sigma (St. Louis, MO). Silica gel plates, GF are obtained from Analtech (Newark, DE). Arachidonic acid, (1-^14 C) and 5-HETE (^3 H), 5 (S)-hydroxy-6-trans,8,11,14-cis eicosatetraenoic acid, are obtained from New England Nuclear (Boston, MA). Six percent Dextran-70 in 0.9% NaCl is obtained from Cutter Labs (Berkeley, CA).
Preparation of Leukocytes
Fresh blood from normal adult men who had not received any drugs for at least the previous five days is obtained by the Community Research Clinic (WL/PD) using venipuncture and collected into heparinized vacuotainer tubes. To every 100 ml of pooled blood is added 25 ml of dextran solution (6% dextran -70 in 0.9% sodium chloride containing 3% dextrose) and this is mixed gently in a plastic cylinder. The mixture is left to stand at room temperature for at least 90 minutes. The upper layer which is rich in leukocytes and platelets is then carefully decanted into 50 ml plastic tubes and centrifuged at about 100×g for eight minutes in an IEC centrifuge and rotor number 269 (about 600 rpm). The supernatant fluid is discarded and the pellet is resuspended in 10 ml of 0.87% ammonium chloride for exactly two minutes. This procedure is to lyse completely contaminating red blood cells. Leukocytes are then separated by centrifugation for ten minutes. The pellet is washed three times by suspension in 20 ml PBS (sodium chloride, 7.1 g; Na2 HPO4, 1.15 g; KH2 PO4, 0.2 g, and KCl, 0.2 g/L) and centrifuged as before. The final pellet is suspended in PBS containing 0.87 mM CaCl2. Viability of the cells is then checked using trypan blue exclusion method and is found to be over 90%.
5-Lipoxygenase Enzyme Assay
Cells in suspension (0.98 ml) are incubated with or without test compounds for five minutes at 37° C. in a shaking water bath. At this time a 17 μl mixture is prepared per 1 ml of cell suspension: 100 mM arachidonic acid, 1 μl, 0.05 μCi ^14 C-arachidonic acid in 5 μl; 1 mM calcium ionophore A23187, 10 μl (1). This mixture is added and the incubation continued for five minutes. The reaction is stopped by adding four volumes of absolute ethanol and the mixture is kept in ice for 30 minutes. The floculated precipitate is separated by centrifugation at about 37,000×g for 20 minutes (Beckman Instruments rotor number 40). The alcohol extract is taken to dryness under a stream of nitrogen and the residue is dissolved in 100-200 μl absolute ethanol. At the time any turbidity is removed by centrifugation. An aliquot (25-50 μl) is applied onto 20×20 cm silica gel TLC plate and developed using the following solvent system: diethyl ether, petroleum ether (20°-40° C.), acetic acid (50:50:1 v/v). Zones of 1 cm apart are scraped from the TLC plate and transferred to mini-vials. Methanol (0.5 ml) is added to dissolve the radioactivity adsorbed to the silica gel and scintillation fluid (H.P., Beckman), 5 ml is then added and vials are counted in a liquid scintillation counter. A sample of ^3 H-5-HETE is applied and used for the identification of the formed 5-HETE.
Total radioactivity in the test as well as the control samples are normalized and the amount of 5-HETE present is calculated accordingly.
IC50 values are defined as the concentrations of test agents which caused a 50% inhibition of the formation of 5-HETE as compared to control and are determined by inspection of the concentration-response curves.
As to `O=C(O)c1ccccc1-c1ccccc1C(=O)Nc1ccc(CCCc2ccc(Cl)c(Cl)c2)cc1` [Example 1, [1,1'-Biphenyl]-2-carboxylic acid, 2'-[[[4-[3-(3,4-dichlorophenyl)propyl]phenyl]amino]carbonyl]-], the IC50 came to 9.6 µM.

For the compound `O=C(O)c1ccccc1-c1ccccc1C(=O)Nc1ccc(CCc2ccc(Cl)c(Cl)c2)cc1` [Example 3, [1,1'-Biphenyl]-2-carboxylic acid, 2'-[[[4-[2-(3,4-dichlorophenyl)ethyl]phenyl]amino]carbonyl]-], the IC50 was found to be 4.6 µM.

Take `O=C(O)c1ccccc1-c1ccccc1C(=O)Nc1cccc(CCc2ccc(Cl)c(Cl)c2)c1` [Example 4, [1,1'-Biphenyl]-2-carboxylic acid, 2'-[[[3-[2-(3,4-dichlorophenyl)ethyl]phenyl]amino]carbonyl]-]: the IC50 stood at 9.3 µM.

For the compound `CN(C(=O)c1ccccc1-c1ccccc1C(=O)O)c1ccc(CCc2ccc(Cl)c(Cl)c2)cc1` [Example 5, [1,1'-Biphenyl]-2-carboxylic acid, 2'-[[[4-[2-(3,4-dichlorophenyl)ethyl]phenyl]methylamino]carbonyl]-], the IC50 worked out at 40 µM.

Turning to `COc1ccc(CCc2ccc(NC(=O)c3ccccc3-c3ccccc3C(=O)O)cc2)cc1OC` [Example 7, [1,1'-Biphenyl]-2-carboxylic acid, 2'-[[[4-[2-(3,4-dimethoxyphenyl)ethyl]phenyl]amino]carbonyl]-], the IC50 was over 20 µM.

On to `CN(C(=O)c1ccccc1-c1ccccc1C(=O)O)c1ccc(CCc2ccc(Cl)cc2)cc1` [Example 8], for which the IC50 is over 20 µM.

As for `O=C(O)c1ccccc1-c1ccccc1C(=O)Nc1ccc(CCc2ccc(Cl)cc2)cc1` [Example 11, [1,1'-Biphenyl]-2-carboxylic acid, 2'-[[4-[2-[(4-chlorophenyl)ethyl]phenyl]amino]carbonyl]-], the IC50 is 12 µM.
